Source: paper PMC11904993, “Humanized Candida and NanoBiT Assays Expedite Discovery of Bdf1 Bromodomain Inhibitors With Antifungal Potential” (Advanced Science, 2025)
Where “and” joins values, the source holds several entries; their conditions need not be identical. Equal entries are not always repeated. Where two headings read alike, the source gives them in different places.

Columns and labels:
CgBdf1 BD1 [1] = biological target: CgBdf1 BD1 (Candida glabrata, UniProt Q6FWV7); experiment: HTRF assay, inhibition of H4ac4 peptide binding; design: species or system C. glabrata; settings: for IC50 / pIC50 CgBD1: single experiments Exp1-3; for IC50: read-out: pIC50 CgBD1 (converted)
CgBdf1 BD2 [2] = biological target: CgBdf1 BD2 (Candida glabrata, UniProt Q6FWV7); experiment: biochemical; format: binding, C. glabrata; settings: for IC50: read-out: pIC50 CgBD2 (converted)
[3] = system: C. glabrata strains expressing WT and mutant Bdf1; experiment: Growth inhibition in liquid media, C. glabrata lab strains; settings: for pEC50 growth inhibition: Fig 2C; for pEC50 growth inhibition / EC50: single experiments Exp1-3; for EC50: Nakaseomyces glabratus
Experimental: (§1) Growth on Liquid Media with C. glabrata Lab Strains: Cells were grown at 30 °C in SC+M+C‐U medium (SC medium with 5 mM methionine, 0.25 mM cysteine, without uracil) to an OD600 of 0.5–0.8. […] Plates were incubated at 30 °C and OD600 was measured using a Multiskan FC Microplate Photometer (Thermo Fisher).

[4] = system: C. glabrata expressing humanized Bdf1 (Brd4 BDs); experiment: Growth inhibition in liquid media, humanized C. glabrata strains; settings: Fig 3E, 50 µM, Exp 1-3
Experimental: as §1

CgBdf1 BD1 [5] = experiment: Histone peptide array assay; settings: peptide array signal; for Raw data, WT / Normalized (0 to 100%), WT: CgBdf1 BD1 WT; for Normalized (0 to 100%), WT / Normalized (0 to 100%), YF mutant: mean of the two raw values; for Raw data, YF mutant / Normalized (0 to 100%), YF mutant: CgBdf1 BD1 YF mutant
Experimental: (§2) The array was prepared as described in the manufacturer's instructions. […] The array was then washed three times with binding buffer. Anti‐GST antibody (GE Healthcare) was used for the detection of GST‐tagged bromodomains.

CgBdf1 BD2 [6] = experiment: Histone peptide array assay; settings: peptide array signal; for Raw data, WT / Normalized (0 to 100%), WT: CgBdf1 BD2 WT; for Normalized (0 to 100%), WT / Normalized (0 to 100%), YF mutant: mean of the two raw values; for Raw data, YF mutant / Normalized (0 to 100%), YF mutant: CgBdf1 BD2 YF mutant
Experimental: as §2

[7] = Fig 2C original data, analogs of 24
[8] = Fig 2C original data, analogs of 24, single experiments Exp1-3
[9] = read-out: pEC50 (WT BDF1), Fig 2D (converted), WT C. glabrata
[10] = read-out: pEC50 growth inhibition, Fig 2C (converted), strain BD1 Y-F
[11] = read-out: pEC50 growth inhibition, Fig 2C (converted), strain BD2 Y-F

CgBdf1 BD2 (Candida glabrata, UniProt Q6FWV7), sequence (Q6FWV7 entry or part of it): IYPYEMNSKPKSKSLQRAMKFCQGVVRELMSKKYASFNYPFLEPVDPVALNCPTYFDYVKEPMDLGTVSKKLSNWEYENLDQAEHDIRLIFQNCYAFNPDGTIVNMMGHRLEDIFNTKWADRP
CgBdf1 BD1 (Candida glabrata, UniProt Q6FWV7), sequence (Q6FWV7 entry or part of it): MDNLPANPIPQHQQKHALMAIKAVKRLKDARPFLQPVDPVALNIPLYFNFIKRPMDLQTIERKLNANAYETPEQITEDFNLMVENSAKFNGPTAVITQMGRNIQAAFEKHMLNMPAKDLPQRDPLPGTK

## COc1cccc(CNc2nc(-c3ccc(C)cc3)nnc2C)c1 [Compound 24f]
CgBdf1 BD1 [1]; [7]
  IC50: 3.66 µM and 2.81 µM and 2.3 µM
CgBdf1 BD2 [2]; [8]
  IC50: > 100 µM
[3]; strain BD2 Y-F
  pEC50 growth inhibition: 4.188
[3]; [9]
  EC50: > 251 µM
[3]; [10]
  EC50: > 251 µM
[3]; [11]
  EC50: 68.2 µM

## CCNC(=O)C[C@@H]1N=C(c2ccc(Cl)cc2)c2cc(OC)ccc2-n2c(C)nnc21 [I-BET762]
[3]; Fig 3E, 50 µM, WT BDF1-flag, Exp 1-3
  %Growth: 107% and 101%
[4]; BDF1-hBD1-flag
  %Growth: 102% and 95% and 92%
[4]; BDF1-hBD2-flag
  %Growth: 105% and 93% and 100%
[4]; humanized BDF1-flag
  %Growth: 83%

## COC(=O)c1ccc(CNc2nc(-c3ccc(C)cc3)nnc2C)cc1 [Compound 24k, Methyl 4‐(((6‐methyl‐3‐(p‐tolyl)‐1,2,4‐triazin‐5‐yl)amino)methyl)benzoate]
CgBdf1 BD1 [1]; [7]
  IC50: > 100 µM
CgBdf1 BD2 [2]; [8]
  IC50: > 100 µM
[3]; [9]
  EC50: > 251 µM
[3]; [10]
  EC50: > 251 µM
[3]; [11]
  EC50: > 251 µM

## Cc1ccc(-c2nnc(C)c(NCc3ccccc3)n2)cc1 [Compound 24m, N‐benzyl‐6‐methyl‐3‐(p‐tolyl)‐1,2,4‐triazin‐5‐amine]
CgBdf1 BD1 [1]; [7]
  IC50: > 20 µM
CgBdf1 BD2 [2]; [8]
  IC50: > 20 µM
[3]; [9]
  EC50: > 251 µM
[3]; [10]
  EC50: > 251 µM
[3]; [11]
  EC50: > 251 µM

## Cc1ccc(-c2nnc(C)c(NCc3ccco3)n2)cc1 [Compound 24a]
CgBdf1 BD1 [1]; [7]
  pIC50 CgBD1: 5.099 and 5.219 and 5.157
CgBdf1 BD1 [1]; relative to 24, thiophenyl replaced by furyl or methylfuryl
  fold drop in CgBD1 inhibition: 3 fold
[3]; [9]
  EC50: 206 µM
[3]; [10]
  EC50: > 251 µM

## COc1ccc(CNc2nc(-c3cccc(C)c3)nnc2C)cc1OC [Compound 24j]
CgBdf1 BD1 [1]; [7]
  IC50: 4.11 µM and 5.81 µM and 4.81 µM
CgBdf1 BD2 [2]; [8]
  IC50: 57 µM and 58.2 µM and 82.4 µM
[3]; [9]
  EC50: > 251 µM
[3]; [10]
  EC50: > 251 µM
[3]; [11]
  EC50: > 251 µM

## Cc1ccc(-c2nc(=O)c(C)n[nH]2)cc1 [Compound 67]
CgBdf1 BD1 [5]; first replicate column
  Raw data, WT: 0.09956
  Raw data, YF mutant: 0.002159
CgBdf1 BD1 [5]
  Normalized (0 to 100%), WT: 16%
  Normalized (0 to 100%), YF mutant: 0.308%
CgBdf1 BD1 [5]; second replicate column
  Raw data, WT: 0.2253
  Raw data, YF mutant: 0.00401
CgBdf1 BD2 [6]; first replicate column
  Raw data, WT: 0.06082
  Raw data, YF mutant: 0.007975
CgBdf1 BD2 [6]
  Normalized (0 to 100%), WT: 11%
  Normalized (0 to 100%), YF mutant: 0.613%
CgBdf1 BD2 [6]; second replicate column
  Raw data, WT: 0.1541
  Raw data, YF mutant: 0.004294

## CCOC(=N)c1ccc(C)cc1 [Compound 65]
CgBdf1 BD1 [5]; first replicate column
  Raw data, WT: 0.0009452
  Raw data, YF mutant: 0.001851
CgBdf1 BD1 [5]
  Normalized (0 to 100%), WT: 1.47%
  Normalized (0 to 100%), YF mutant: 0.247%
CgBdf1 BD1 [5]; second replicate column
  Raw data, WT: 0.02836
  Raw data, YF mutant: 0.003085
CgBdf1 BD2 [6]; first replicate column
  Raw data, WT: 0.004991
  Raw data, YF mutant: 0.007362
CgBdf1 BD2 [6]
  Normalized (0 to 100%), WT: 0.421%
  Normalized (0 to 100%), YF mutant: 0.383%
CgBdf1 BD2 [6]; second replicate column
  Raw data, WT: 0.003431
  Raw data, YF mutant: 0.0003067

## COc1ccccc1S(=O)(=O)Nc1ccc2c(c1)CN(C)C(=O)N2 [PFI-1, reference compound]
CgBdf1 BD1 [1]; Fig 1D/2A original data
  pIC50 CgBD1: 4.63 and 4.61
CgBdf1 BD2 [2]
  pIC50 CgBD2: * 4

## COc1ccc(-c2nnc(C)c(NCc3ccccc3)n2)cc1 [Compound 24g]
CgBdf1 BD1 [1]; [7]
  pIC50 CgBD1: 6.145 and 5.997
CgBdf1 BD2 [2]; [8]
  pIC50 CgBD2: 4.269 and <4
[3]; strain BD2 Y-F
  pEC50 growth inhibition: 4.261 and 4.310
[3]; [9]
  EC50: > 251 µM
[3]; [10]
  EC50: > 251 µM
[3]; [11]
  EC50: 43.2 µM
